Data: US5242938A, “Derivatives of virginiamycin M1” (Merck & Co., Inc., priority 1992, dated 1993)
Values after ≈ are worked out from the molar mass of the structure shown. Read-outs that look alike come from different tables or passages of the source.

How the values were obtained:
Bacillus sp. (Mb 633) = assay: Agar diffusion disc assay, Baci 633; type: cell-based; conditions: Bacillus, 18 h, @ 20 g/disc; read-out: Inhibition zone diameter, Baci 633
Procedure: (§1) Cultures employed in evaluating antimicrobial activity included plant pathogens, human and animal opportunistic pathogens and selected laboratory strains having specific-antibiotic sensitivities or chromosomal or R-plasmid-mediated resistances. […] The agar diffusion MIC's were determined using the method described by Barry in Anitbiotics in Laboratory Medicine, 2nd Ed., Ed. V. Lorian, pp. 1-63, William & Wilkins, Baltimore, 1986. Each test compound was dissolved in methanol to a concentration of 1 mg/ml. Serial dilutions of these compounds were also made to determine an agar diffusion MIC. 20 μl of each dilution was pipetted on to 6 mm paper discs, air dried and placed onto the surface of an agar plate seeded with the appropriate bacteria (~10^6 cfu). Seeded agar plates were incubated overnight (~18 hours) at 25° C. Zone sizes were measured to the nearest mm. Each compound was tested in triplicate and the results shown represent the mean.

CCK-A (rat pancreas) [1] = target: T1, CCK-A (rat pancreas) (Rattus norvegicus, UniProt P30551); assay: [125I]BHCCK-8 radioligand binding, rat pancreatic preparation; conditions: read-out: CCK binding inhibition - IC50, [125I]BHCCK
T1 construct: from tissue; host or cells: rat pancreas
T1 sequence (P30551 1-444): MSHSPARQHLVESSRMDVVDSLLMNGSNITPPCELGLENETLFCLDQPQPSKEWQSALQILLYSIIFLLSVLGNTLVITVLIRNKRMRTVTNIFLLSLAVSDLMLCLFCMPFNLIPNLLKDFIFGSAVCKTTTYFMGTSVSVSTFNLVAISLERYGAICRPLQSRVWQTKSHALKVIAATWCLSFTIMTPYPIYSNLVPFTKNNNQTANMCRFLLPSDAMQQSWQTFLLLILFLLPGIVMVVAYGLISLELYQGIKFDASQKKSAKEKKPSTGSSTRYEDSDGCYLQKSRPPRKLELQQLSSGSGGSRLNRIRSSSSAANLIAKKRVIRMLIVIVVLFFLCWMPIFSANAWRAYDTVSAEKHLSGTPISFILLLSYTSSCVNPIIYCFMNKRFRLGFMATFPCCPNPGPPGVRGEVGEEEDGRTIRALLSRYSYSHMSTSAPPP
Procedure: (§2) The resulting supernatant was re-spun at 20,000×g for 20 minutes. […] Incubations were for 40 minutes at 4° C. and were terminated by filtration and washing with ice cold 100 mM saline. […] Incubations were for 30 minutes at room temperature and were terminated by filtration over GF/C filters and washing with 100 mM NaCl.

[2] = tested on: Escherichia coli (Mb 1418); assay: Agar diffusion disc assay, Coli 1418; type: cell-based; conditions: Escherichia coli, 18 h; @ 20 g/disc; read-out: Inhibition zone diameter, Coli 1418
Procedure: as §1

[3] = tested on: En terobacter aergenes (Mb 835); assay: Agar diffusion disc assay, Ent 835; type: cell-based; conditions: 18 h; @ 20 g/disc; read-out: Inhibition zone diameter, Ent 835
Procedure: as §1

[4] = target: T2, CCK-B (guinea pig cortex) (Cavia porcellus, UniProt H0VZC5); assay: [125I]BHCCK-8 radioligand binding, guinea pig cortical preparation; conditions: read-out: CCK binding inhibition - IC50, [125I]BHCCK
T2 construct: guinea pig cortical preparations; from tissue; host or cells: guinea pig brain cortex membranes
T2 sequence (H0VZC5 1-426): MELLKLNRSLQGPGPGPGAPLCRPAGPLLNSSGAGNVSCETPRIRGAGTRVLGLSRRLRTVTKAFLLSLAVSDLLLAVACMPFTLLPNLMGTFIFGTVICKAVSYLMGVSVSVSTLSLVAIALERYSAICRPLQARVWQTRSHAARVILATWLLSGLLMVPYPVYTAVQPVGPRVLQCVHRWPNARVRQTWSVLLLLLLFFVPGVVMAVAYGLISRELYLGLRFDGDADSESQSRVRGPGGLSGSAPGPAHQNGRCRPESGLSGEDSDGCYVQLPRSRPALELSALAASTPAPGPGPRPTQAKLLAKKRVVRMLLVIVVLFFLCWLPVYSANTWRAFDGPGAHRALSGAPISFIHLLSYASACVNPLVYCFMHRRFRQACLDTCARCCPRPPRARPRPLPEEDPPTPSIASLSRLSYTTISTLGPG
Procedure: as §2

[5] = tested on: Staphylococcus aureus (Mb 2983); assay: Agar diffusion disc assay, Sta 2983; type: cell-based; conditions: Staphylococcus aureus, 18 h; @ 20 g/disc; read-out: Inhibition zone diameter, Sta 2983
Procedure: as §1

[6] = tested on: Staphylococcus aureus (Mb 108, ATCC 6538P); assay: Agar diffusion disc assay, Sta 108; type: cell-based; conditions: Staphylococcus aureus, ATCC6538P, 18 h; @ 20 g/disc; read-out: Inhibition zone diameter, Sta 108
Procedure: as §1

[7] = tested on: Salmonella gallinarum (Mb 1287); assay: Agar diffusion disc assay, Salm 1287; type: cell-based; conditions: Salmonella enterica, GALLINARUM, 18 h; @ 20 g/disc; read-out: Inhibition zone diameter, Salm 1287
Procedure: as §1

[8] = tested on: Corynebacterium pseudodiphtheriticum (Mb 261, ATCC 9742); assay: Agar diffusion disc assay, Cory 261; type: cell-based; conditions: Corynebacterium pseudodiphtheriticum, ATCC9742, 18 h; @ 20 g/disc; read-out: Inhibition zone diameter, Cory 261
Procedure: as §1

CCK-A (rat pancreas) [9] = target: T1, CCK-A (rat pancreas); assay: [3H]L-364,718 CCK-A selective antagonist ligand binding, pancreas; conditions: for IC50: read-out: CCK binding inhibition - IC50, [3H]L-364,718
Procedure: as §2

[10] = target: T2, CCK-B (guinea pig cortex); assay: [3H]L-365,260 CCK-B selective antagonist ligand binding, brain membranes; conditions: for IC50: read-out: CCK binding inhibition - IC50, [3H]L-365,260
Procedure: as §2

[11] = tested on: Micrococcus luteus (Mb 1101, ATCC 9341); assay: Agar diffusion disc assay, Micr 1101; type: cell-based; conditions: Micrococcus luteus; for MIC: read-out: Agar Diffusion MIC versus Micrococcus luteus; for zone of inhibition at 1.25 µg/disc: 1.25 μg/disc; for zone of inhibition at 2.5 µg/disc: 2.50 μg/disc; for zone of inhibition at 5 µg/disc: 5.00 μg/disc; for zone of inhibition at 10 µg/disc: 10.0 μg/disc
Procedure: as §1

[12] = tested on: Bacillus subtilis (Mb 964, ATCC 6633); assay: Agar diffusion disc assay, Subt 964; type: cell-based; conditions: Bacillus subtilis, ATCC6633, 18 h; @ 20 g/disc; read-out: Inhibition zone diameter, Subt 964
Procedure: as §1

[13] = tested on: Streptococcus agalactiae (Mb 2875); assay: Agar diffusion disc assay, Str 2875; type: cell-based; conditions: Streptococcus agalactiae, 18 h; @ 20 g/disc; read-out: Inhibition zone diameter, Str 2875
Procedure: as §1

[14] = tested on: Pseudomonas stutzeri (Mb 1231, ATCC 11607); assay: Agar diffusion disc assay, Pseu 1231; type: cell-based; conditions: Stutzerimonas stutzeri, ATCC11607, 18 h; @ 20 g/disc; read-out: Inhibition zone diameter, Pseu 1231
Procedure: as §1

[15] = tested on: Streptococcus faecium (Mb 2820); assay: Agar diffusion disc assay, Str 2820; type: cell-based; conditions: Enterococcus faecium, 18 h; @ 20 g/disc; read-out: Inhibition zone diameter, Str 2820
Procedure: as §1

[16] = ATCC9341, 18 h, @ 20 g/disc, read-out: Inhibition zone diameter, Micr 1101
[17] = ATCC9341, 25° C., ~18 hours, read-out: Mean of triplicate zone size versus Micrococcus luteus
[18] = ATCC9341, 20.0 μg/disc, 25° C., ~18 hours, read-out: Mean of triplicate zone size versus Micrococcus luteus

Compound	zone of inhibition at 20 µg/disc (Bacillus sp. (Mb 633)) [mm]	IC50 (CCK-A (rat pancreas) [1]) [nM]	zone of inhibition at 20 µg/disc [2] [mm]	zone of inhibition at 20 µg/disc [3] [mm]	IC50 [4] [nM]	zone of inhibition at 20 µg/disc [5] [mm]	zone of inhibition at 20 µg/disc [6] [mm]	zone of inhibition at 20 µg/disc [7] [mm]	zone of inhibition at 20 µg/disc [8] [mm]	IC50 (CCK-A (rat pancreas) [9]) [nM]	A.R. = agonist ratio = IC50([3H]L365,260)/IC50([125I]CCK) [10]	IC50 [10] [nM]	zone of inhibition at 20 µg/disc [11, 16] [mm]	MIC ([11]; ATCC9341, 18 h) [µM]	zone of inhibition at 1.25 µg/disc [11, 17] [mm]	zone of inhibition at 2.5 µg/disc [11, 17] [mm]	zone of inhibition at 5 µg/disc [11, 17] [mm]	zone of inhibition at 10 µg/disc [11, 17] [mm]	zone of inhibition at 20 µg/disc [11, 18] [mm]	zone of inhibition at 20 µg/disc [12] [mm]	other results
CC1=C\[C@@H](OC(=O)Nc2ccccc2)CC(=O)Cc2nc(co2)C(=O)N2CCC=C2C(=O)O[C@H](C(C)C)[C@H](C)/C=C/C(=O)NC\C=C\1 [Example 11]	0	2300	0	0	300	0	0	0	0	4000	5.3	1600	14	0.05 (≈ 0.0322 µg/mL)	7	10	11	12	12	0	A.R. = agonist ratio (CCK-A (rat pancreas) [9]; [3H]L-364,718 / [125I]BHCCK): 1.7; zone of inhibition at 20 µg/disc [13]: 0 mm; zone of inhibition at 20 µg/disc [14]: 0 mm; zone of inhibition at 20 µg/disc [15]: 0 mm
CC1=C\[C@@H](OC(=O)Nc2ccccc2[N+](=O)[O-])CC(=O)Cc2nc(co2)C(=O)N2CCC=C2C(=O)O[C@H](C(C)C)[C@H](C)/C=C/C(=O)NC\C=C\1 [Example 8]	0	> 3000	0	0	300	0	7	0	9	> 3000	10	3100	16	0.019 (≈ 0.0131 µg/mL)	12	15	15	16	16	0	zone of inhibition at 20 µg/disc [13]: 0 mm; zone of inhibition at 20 µg/disc [14]: 0 mm; zone of inhibition at 20 µg/disc [15]: 0 mm
